How the values were obtained:
Assay type in all cases: in vivo
[1] = system: yellow fever mosquito (Aedes aegypti); assay: Yellow fever mosquito (Aedes aegypti) control, larvae in tap water in 96-well microtiter plates; details: larval mortality visually assessed after 2 days
Method: For evaluating control of yellow fever mosquito (Aedes aegypti) the test unit consisted of 96-well-microtiter plates containing 200 μl of tap water per well and 5-15 freshly hatched A. aegypti larvae.
The compounds or mixtures were formulated using a solution containing 75% water and 25% DMSO. Different concentrations of formulated compounds or mixtures were sprayed onto the insect diet at 2.5 μl, using a custom built micro atomizer, at two replications.
(§1) For experimental mixtures in these tests identical volumes of both mixing partners at the desired concentrations respectively, were mixed together.
After application, microtiter plates were incubated at 28±1° C., 80±5% RH for 2 days. Larval mortality was then visually assessed.

[2] = system: boll weevil (Anthonomus grandis); assay: Boll weevil (Anthonomus grandis) control, insect diet with eggs in 24-well microtiter plates; details: egg and larval mortality visually assessed after 5 days
Method: For evaluating control of boll weevil the test unit consisted of 24-well-microtiter plates containing an insect diet and 20-30 A. grandis eggs.
The compounds or mixtures were formulated using a solution containing 75% water and 25% DMSO. Different concentrations of formulated compounds or mixtures were sprayed onto the insect diet at 20 μl, using a custom built micro atomizer, at two replications.
as §1
After application, microtiter plates were incubated at 23+1° C., 50+5% RH for 5 days. Egg and larval mortality was then visually assessed.

[3] = system: green peach aphid (Myzus persicae); assay: Green peach aphid (Myzus persicae) control through systemic means, artificial diet in 96-well microtiter plates; details: 2 ppm; aphid mortality and fecundity visually assessed after 3 days
Text: For evaluating control of green peach aphid (Myzus persicae) through systemic means the test unit consisted of 96-well-microtiter plates containing liquid artificial diet under an artificial membrane.
Different concentrations of formulated compounds or mixtures were pipetted into the aphid diet, using a custom built pipetter, at two replications.
as §1
After application, 5-8 adult aphids were placed on the artificial membrane inside the microtiter plate wells. […] Aphid mortality and fecundity was then visually assessed.

CC(NC(=O)c1cc(Cl)cc(Br)c1NC(=O)c1cc(Br)nn1-c1ncccc1Cl)C1CC1 (centres unmarked) [I.2, cyclaniliprole, reference compound]
Average Control % ([1]; 2 ppm): 0% | Average Control % ([2]; 0.08 ppm): 0%

Cn1nc(C(F)(F)C(F)(F)F)c(C(F)(F)F)c1C(=O)Nc1ccc(Cl)c(C(=O)NCc2ccccc2)c1 [II-1, N-[4-Chloro-3-[[(phenylmethyl)amino]carbonyl]phenyl]-1-methyl-3-(1,1,2,2,2-pentafluoroethyl)-4-(trifluoromethyl)-1H-pyrazole-5-carboxamide]
Average Control % ([1]; 20 ppm): 50% | Average Control % ([2]; 20 ppm): 0%

CCN1OC[C@@H](NC(=O)c2ccc(C3=NOC(c4cc(Cl)cc(Cl)c4)(C(F)(F)F)C3)cc2C)C1=O (stereo partly drawn) [II-4.1, 4-[5-(3,5-dichlorophenyl)-5-(trifluoromethyl)-4H-isoxazol-3-yl]-N-[(4R)-2-ethyl-3-oxo-isoxazolidin-4-yl]-2-methyl-benzamide]
Average Control % [3]: 0%

From patent US11297837B2, “Pesticidally activi mixtures comprising anthranilamide compounds” (priority 2016, dated 2022)
